Data reported in ChEMBL document CHEMBL4819050, “Discovery of a novel series of guanidinebenzoates as gut-restricted enteropeptidase and trypsin dual inhibitors for the treatment of metabolic syndrome” (Bioorg Med Chem Lett, 2021).

Organism: Bos taurus
Test: Inhibition of bovine trypsin assessed as protease activity using D-CHA-AR-AMC as substrate at 0.1 uM by fluorescence assay relative to control
Parameters: scale not given: the % may be the effect or the level left

With O=C(O)Cc1ccc(OC(=O)c2ccc(NC3=NCCCN3)cc2)c2ncnn12 as the compound, how does the Activity read?
Its Activity is 2.91%.

For C/C(=N\O)Nc1ccc(C(=O)Oc2ccc(CC(=O)O)n3ncnc23)cc1, which Activity is on record?
The Activity was -8.04%.

For N=C1NCCN1c1ccc(C(=O)Oc2ccc(CC(=O)O)n3ncnc23)cc1, which Activity is on record?
The Activity was 10.9%.

With N=C(N)Nc1ccc(C(=O)Oc2ccc(CC(=O)O)n3ncnc23)c(F)c1 as the compound, how does the Activity read?
The Activity was 97.2%.

Which Activity does the source give for C#CCOCCOCC#Cc1ccc(CC(=O)O)n2ncnc12 here?
The Activity was 52.9%.

N=C(N)Nc1ccc(C(=O)Oc2ccc(CC(=O)O)n3ncnc23)c(C(F)(F)F)c1 was tested. Which Activity did it give?
The Activity was 2.31%.

Which Activity does the source give for N=C(N)Nc1ccc(C(=O)Oc2ccc(CCC(=O)O)n3ncnc23)cc1 here?
The Activity was 99.8%.

How did the Activity turn out when N=C(N)Nc1ccc(C(=O)Oc2ccc(CCC(=O)O)n3ccnc23)cc1 was run?
Its Activity is 61%.

How did the Activity turn out when N=C(N)Nc1cccc(C(=O)Oc2ccc(CC(=O)O)n3ncnc23)c1 was run?
The Activity was -0.24%.

Cc1cc(NC(=N)N)ccc1C(=O)Oc1ccc(CC(=O)O)n2ncnc12 was tested. Which Activity did it give?
Its Activity is 9.45%.

For N=C(N)Nc1ccc(C(=O)Oc2ccc(CC(=O)O)n3ncnc23)c(Cl)c1, which Activity is on record?
Its Activity is 43.5%.

N#CNC(=N)c1ccc(C(=O)Oc2ccc(CC(=O)O)n3ncnc23)cc1 was tested. Which Activity did it give?
Its Activity is -2.06%.

With CC(=N)Nc1ccc(C(=O)Oc2ccc(CC(=O)O)n3ncnc23)cc1 as the compound, how does the Activity read?
Its Activity is 11.5%.

Organism: Bos taurus
Test: Inhibition of bovine trypsin assessed as protease activity using D-CHA-AR-AMC as substrate at 10 uM by fluorescence assay relative to control
Parameters: scale not given: the % may be the effect or the level left

Which Activity does the source give for O=C(O)Cc1ccc(OC(=O)c2ccc(NC3=NCCCN3)cc2)c2ncnn12 here?
The Activity was -7.38%.

With C/C(=N\O)Nc1ccc(C(=O)Oc2ccc(CC(=O)O)n3ncnc23)cc1 as the compound, how does the Activity read?
Its Activity is 10.1%.

How did the Activity turn out when N=C1NCCN1c1ccc(C(=O)Oc2ccc(CC(=O)O)n3ncnc23)cc1 was run?
Its Activity is 93%.

For N=C(N)Nc1ccc(C(=O)Oc2ccc(CC(=O)O)n3ncnc23)c(F)c1, which Activity is on record?
The Activity was 100%.

C#CCOCCOCC#Cc1ccc(CC(=O)O)n2ncnc12 was tested. Which Activity did it give?
Its Activity is 100%.

For N=C(N)Nc1ccc(C(=O)Oc2ccc(CC(=O)O)n3ncnc23)c(C(F)(F)F)c1, which Activity is on record?
Its Activity is 88.7%.

How did the Activity turn out when N=C(N)Nc1ccc(C(=O)Oc2ccc(CCC(=O)O)n3ncnc23)cc1 was run?
The Activity was 100%.

How did the Activity turn out when N=C(N)Nc1ccc(C(=O)Oc2ccc(CCC(=O)O)n3ccnc23)cc1 was run?
Its Activity is 100%.

How did the Activity turn out when N=C(N)Nc1cccc(C(=O)Oc2ccc(CC(=O)O)n3ncnc23)c1 was run?
Its Activity is 18.6%.

Which Activity does the source give for Cc1cc(NC(=N)N)ccc1C(=O)Oc1ccc(CC(=O)O)n2ncnc12 here?
The Activity was 99.7%.

For N=C(N)Nc1ccc(C(=O)Oc2ccc(CC(=O)O)n3ncnc23)c(Cl)c1, which Activity is on record?
The Activity was 99.9%.

For N#CNC(=N)c1ccc(C(=O)Oc2ccc(CC(=O)O)n3ncnc23)cc1, which Activity is on record?
The Activity was 35.8%.

CC(=N)Nc1ccc(C(=O)Oc2ccc(CC(=O)O)n3ncnc23)cc1 was tested. Which Activity did it give?
The Activity was 99.7%.

The compounds below were run against Enteropeptidase (Homo sapiens) (UniProt P98073) (assay: Inhibition of full length recombinant human EP expressed in CHO cells assessed as protease activity using […] as substrate at 10 uM by fluorescence assay relative to control).
Parameters: scale not given: the % may be the effect or the level left

Sequence of Enteropeptidase (Homo sapiens) (P98073 2-784 limits assumed): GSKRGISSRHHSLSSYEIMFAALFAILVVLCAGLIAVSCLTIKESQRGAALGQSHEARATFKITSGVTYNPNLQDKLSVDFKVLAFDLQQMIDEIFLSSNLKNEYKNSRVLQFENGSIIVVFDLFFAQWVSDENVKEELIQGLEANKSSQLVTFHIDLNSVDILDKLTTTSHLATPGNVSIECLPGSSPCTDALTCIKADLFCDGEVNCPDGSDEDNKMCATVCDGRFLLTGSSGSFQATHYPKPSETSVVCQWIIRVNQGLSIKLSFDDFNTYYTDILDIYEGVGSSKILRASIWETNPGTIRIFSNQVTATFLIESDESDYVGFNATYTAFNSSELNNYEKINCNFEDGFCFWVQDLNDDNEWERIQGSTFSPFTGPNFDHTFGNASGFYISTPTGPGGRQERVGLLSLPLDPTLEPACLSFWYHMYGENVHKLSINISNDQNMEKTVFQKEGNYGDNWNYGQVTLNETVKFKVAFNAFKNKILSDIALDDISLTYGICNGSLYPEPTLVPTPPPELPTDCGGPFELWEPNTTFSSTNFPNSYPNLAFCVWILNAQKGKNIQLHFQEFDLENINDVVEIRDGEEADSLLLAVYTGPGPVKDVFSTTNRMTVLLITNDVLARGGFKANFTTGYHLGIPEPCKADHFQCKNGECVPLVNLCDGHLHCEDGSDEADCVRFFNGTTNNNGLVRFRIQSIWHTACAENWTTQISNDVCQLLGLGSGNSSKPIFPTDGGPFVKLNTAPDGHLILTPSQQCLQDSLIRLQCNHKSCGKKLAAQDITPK
Sequence of Enteropeptidase (Homo sapiens) (P98073 785-1019 limits assumed): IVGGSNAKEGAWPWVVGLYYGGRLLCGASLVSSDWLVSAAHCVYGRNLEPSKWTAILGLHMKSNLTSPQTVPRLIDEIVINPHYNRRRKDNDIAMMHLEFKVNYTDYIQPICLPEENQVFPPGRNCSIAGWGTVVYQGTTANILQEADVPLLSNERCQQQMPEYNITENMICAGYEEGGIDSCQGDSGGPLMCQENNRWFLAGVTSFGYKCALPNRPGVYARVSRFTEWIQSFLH

With O=C(O)Cc1ccc(OC(=O)c2ccc(NC3=NCCCN3)cc2)c2ncnn12 as the compound, how does the Activity read?
Its Activity is -10.4%.

Which Activity does the source give for C/C(=N\O)Nc1ccc(C(=O)Oc2ccc(CC(=O)O)n3ncnc23)cc1 here?
The Activity was -10.8%.

With N=C1NCCN1c1ccc(C(=O)Oc2ccc(CC(=O)O)n3ncnc23)cc1 as the compound, how does the Activity read?
Its Activity is 93.2%.

For N=C(N)Nc1ccc(C(=O)Oc2ccc(CC(=O)O)n3ncnc23)c(F)c1, which Activity is on record?
The Activity was 100%.

C#CCOCCOCC#Cc1ccc(CC(=O)O)n2ncnc12 was tested. Which Activity did it give?
The Activity was 99.8%.

With N=C(N)Nc1ccc(C(=O)Oc2ccc(CC(=O)O)n3ncnc23)c(C(F)(F)F)c1 as the compound, how does the Activity read?
Its Activity is 98.9%.

For N=C(N)Nc1ccc(C(=O)Oc2ccc(CCC(=O)O)n3ncnc23)cc1, which Activity is on record?
The Activity was 100%.

N=C(N)Nc1ccc(C(=O)Oc2ccc(CCC(=O)O)n3ccnc23)cc1 was tested. Which Activity did it give?
The Activity was 100%.

N=C(N)Nc1cccc(C(=O)Oc2ccc(CC(=O)O)n3ncnc23)c1 was tested. Which Activity did it give?
The Activity was 6.8%.

How did the Activity turn out when Cc1cc(NC(=N)N)ccc1C(=O)Oc1ccc(CC(=O)O)n2ncnc12 was run?
The Activity was 101%.

How did the Activity turn out when N=C(N)Nc1ccc(C(=O)Oc2ccc(CC(=O)O)n3ncnc23)c(Cl)c1 was run?
The Activity was 100%.

For N#CNC(=N)c1ccc(C(=O)Oc2ccc(CC(=O)O)n3ncnc23)cc1, which Activity is on record?
Its Activity is 13.6%.

For CC(=N)Nc1ccc(C(=O)Oc2ccc(CC(=O)O)n3ncnc23)cc1, which Activity is on record?
Its Activity is 100%.

Organism: Bos taurus
Test: Inhibition of bovine trypsin assessed as ratio of Kinact/Kiapp

How did the Ratio turn out when C#CCOCCOCC#Cc1ccc(CC(=O)O)n2ncnc12 was run?
Its Ratio is 59400 M⁻¹ s⁻¹.

The compounds below were run against Enteropeptidase (Homo sapiens) (UniProt P98073) (assay: Inhibition of full length recombinant human EP expressed in CHO cells assessed as protease activity using […] as substrate at 1 uM by fluorescence assay relative to control).
Parameters: scale not given: the % may be the effect or the level left

How did the Activity turn out when O=C(O)Cc1ccc(OC(=O)c2ccc(NC3=NCCCN3)cc2)c2ncnn12 was run?
The Activity was -2%.

C/C(=N\O)Nc1ccc(C(=O)Oc2ccc(CC(=O)O)n3ncnc23)cc1 was tested. Which Activity did it give?
The Activity was -10.1%.

Which Activity does the source give for N=C1NCCN1c1ccc(C(=O)Oc2ccc(CC(=O)O)n3ncnc23)cc1 here?
Its Activity is 57.9%.

For N=C(N)Nc1ccc(C(=O)Oc2ccc(CC(=O)O)n3ncnc23)c(F)c1, which Activity is on record?
Its Activity is 100%.

How did the Activity turn out when C#CCOCCOCC#Cc1ccc(CC(=O)O)n2ncnc12 was run?
The Activity was 98.5%.

With N=C(N)Nc1ccc(C(=O)Oc2ccc(CC(=O)O)n3ncnc23)c(C(F)(F)F)c1 as the compound, how does the Activity read?
Its Activity is 38.5%.

How did the Activity turn out when N=C(N)Nc1ccc(C(=O)Oc2ccc(CCC(=O)O)n3ncnc23)cc1 was run?
The Activity was 101%.

How did the Activity turn out when N=C(N)Nc1ccc(C(=O)Oc2ccc(CCC(=O)O)n3ccnc23)cc1 was run?
Its Activity is 95.1%.

How did the Activity turn out when N=C(N)Nc1cccc(C(=O)Oc2ccc(CC(=O)O)n3ncnc23)c1 was run?
The Activity was -6.7%.

How did the Activity turn out when Cc1cc(NC(=N)N)ccc1C(=O)Oc1ccc(CC(=O)O)n2ncnc12 was run?
Its Activity is 59.9%.

With N=C(N)Nc1ccc(C(=O)Oc2ccc(CC(=O)O)n3ncnc23)c(Cl)c1 as the compound, how does the Activity read?
The Activity was 100%.

Which Activity does the source give for N#CNC(=N)c1ccc(C(=O)Oc2ccc(CC(=O)O)n3ncnc23)cc1 here?
Its Activity is 1.9%.

Which Activity does the source give for CC(=N)Nc1ccc(C(=O)Oc2ccc(CC(=O)O)n3ncnc23)cc1 here?
Its Activity is 99.6%.

The compounds below were run against Enteropeptidase (Homo sapiens) (UniProt P98073) (assay: Inhibition of full length recombinant human EP expressed in CHO cells assessed as ratio of Kinact/Kiapp).
Format: cell-based

How did the Ratio turn out when C#CCOCCOCC#Cc1ccc(CC(=O)O)n2ncnc12 was run?
Its Ratio is 52800 M⁻¹ s⁻¹.

Which Ratio does the source give for N=C(N)Nc1ccc(C(=O)Oc2ccc(CCC(=O)O)n3ccnc23)cc1 here?
The Ratio was 24400 M⁻¹ s⁻¹.

Each compound was assayed against Enteropeptidase (Homo sapiens) (UniProt P98073) (assay: Inhibition of full length recombinant human EP expressed in CHO cells assessed as protease activity using […] as substrate at 0.1 uM by fluorescence assay relative to control).
Parameters: scale not given: the % may be the effect or the level left

For O=C(O)Cc1ccc(OC(=O)c2ccc(NC3=NCCCN3)cc2)c2ncnn12, which Activity is on record?
Its Activity is 1.03%.

With C/C(=N\O)Nc1ccc(C(=O)Oc2ccc(CC(=O)O)n3ncnc23)cc1 as the compound, how does the Activity read?
The Activity was -10.7%.

N=C1NCCN1c1ccc(C(=O)Oc2ccc(CC(=O)O)n3ncnc23)cc1 was tested. Which Activity did it give?
The Activity was 10.5%.

How did the Activity turn out when N=C(N)Nc1ccc(C(=O)Oc2ccc(CC(=O)O)n3ncnc23)c(F)c1 was run?
Its Activity is 99.4%.

How did the Activity turn out when C#CCOCCOCC#Cc1ccc(CC(=O)O)n2ncnc12 was run?
Its Activity is 63%.

How did the Activity turn out when N=C(N)Nc1ccc(C(=O)Oc2ccc(CC(=O)O)n3ncnc23)c(C(F)(F)F)c1 was run?
The Activity was 4.14%.

How did the Activity turn out when N=C(N)Nc1ccc(C(=O)Oc2ccc(CCC(=O)O)n3ncnc23)cc1 was run?
Its Activity is 35%.

With N=C(N)Nc1ccc(C(=O)Oc2ccc(CCC(=O)O)n3ccnc23)cc1 as the compound, how does the Activity read?
Its Activity is 27.6%.

N=C(N)Nc1cccc(C(=O)Oc2ccc(CC(=O)O)n3ncnc23)c1 was tested. Which Activity did it give?
Its Activity is -11.2%.

Cc1cc(NC(=N)N)ccc1C(=O)Oc1ccc(CC(=O)O)n2ncnc12 was tested. Which Activity did it give?
The Activity was 10.3%.

With N=C(N)Nc1ccc(C(=O)Oc2ccc(CC(=O)O)n3ncnc23)c(Cl)c1 as the compound, how does the Activity read?
Its Activity is 81.2%.

With N#CNC(=N)c1ccc(C(=O)Oc2ccc(CC(=O)O)n3ncnc23)cc1 as the compound, how does the Activity read?
The Activity was -1.6%.

Which Activity does the source give for CC(=N)Nc1ccc(C(=O)Oc2ccc(CC(=O)O)n3ncnc23)cc1 here?
The Activity was 47.8%.

Organism: Bos taurus
Test: Inhibition of bovine trypsin assessed as protease activity using D-CHA-AR-AMC as substrate at 1 uM by fluorescence assay relative to control
Parameters: scale not given: the % may be the effect or the level left

Which Activity does the source give for O=C(O)Cc1ccc(OC(=O)c2ccc(NC3=NCCCN3)cc2)c2ncnn12 here?
Its Activity is -3.49%.

C/C(=N\O)Nc1ccc(C(=O)Oc2ccc(CC(=O)O)n3ncnc23)cc1 was tested. Which Activity did it give?
The Activity was -0.45%.

How did the Activity turn out when N=C1NCCN1c1ccc(C(=O)Oc2ccc(CC(=O)O)n3ncnc23)cc1 was run?
Its Activity is 58.3%.

For N=C(N)Nc1ccc(C(=O)Oc2ccc(CC(=O)O)n3ncnc23)c(F)c1, which Activity is on record?
The Activity was 99.7%.

Which Activity does the source give for C#CCOCCOCC#Cc1ccc(CC(=O)O)n2ncnc12 here?
Its Activity is 99.6%.

With N=C(N)Nc1ccc(C(=O)Oc2ccc(CC(=O)O)n3ncnc23)c(C(F)(F)F)c1 as the compound, how does the Activity read?
Its Activity is 16.6%.

How did the Activity turn out when N=C(N)Nc1ccc(C(=O)Oc2ccc(CCC(=O)O)n3ncnc23)cc1 was run?
Its Activity is 100%.

For N=C(N)Nc1ccc(C(=O)Oc2ccc(CCC(=O)O)n3ccnc23)cc1, which Activity is on record?
Its Activity is 100%.

With N=C(N)Nc1cccc(C(=O)Oc2ccc(CC(=O)O)n3ncnc23)c1 as the compound, how does the Activity read?
The Activity was 1.21%.

With Cc1cc(NC(=N)N)ccc1C(=O)Oc1ccc(CC(=O)O)n2ncnc12 as the compound, how does the Activity read?
Its Activity is 49%.

N=C(N)Nc1ccc(C(=O)Oc2ccc(CC(=O)O)n3ncnc23)c(Cl)c1 was tested. Which Activity did it give?
The Activity was 97.6%.

For N#CNC(=N)c1ccc(C(=O)Oc2ccc(CC(=O)O)n3ncnc23)cc1, which Activity is on record?
The Activity was 2.46%.

CC(=N)Nc1ccc(C(=O)Oc2ccc(CC(=O)O)n3ncnc23)cc1 was tested. Which Activity did it give?
Its Activity is 68%.
